For series [1] the following is noted: cited from earlier work.
Series [2] concerns rat pup ultrasonic vocalization. Put plainly: Rat pup isolation-induced ultrasonic vocalization test. The class given is in vivo, rat (Harlan Sprague-Dawley pups). The note with it: for suppression of rat pup ultrasonic vocalization: 0.03-1 mg/kg, cold plate; for suppression of rat pup ultrasonic vocalization / ED50: sc, 30 min prior to test; for ED50: Rattus norvegicus, 0.5 h, doses refer to weight of the salt, read-out: ID50, dose predicted to reduce the number of calls by 50%; for anxiolytic activity in rat pup isolation-induced ultrasonic vocalization model (in words): in vivo.

A further series deals with dorsal raphe neurons. Conditions: systemic administration (I.V. and intragastric for metabolites), rats; cited from earlier work.
Series [3] concerns rat pup locomotor activity. Put plainly: Locomotor activity (grid cell crossings) in the rat pup. Conditions: sc; for locomotor activity (in words): 0.03-1 mg/kg. It is filed as in vivo, rat (Harlan Sprague-Dawley pups).
Another series in a line: clinical. The class given is in vivo. An excerpt: The human dosing schedule is shown below. |______________________________________ […] | Interval BID Dose (mg) (Study Day) |______________________________________ […] | 3 15 15 […] | 5 30 25 |______________________________________
A short description of series [4]: Previous laboratory testing for antianxiety properties. Conditions: laboratory methods developed for azapirone compounds.
The next series deals with T1, human 5-HT1A receptor (Homo sapiens, UniProt P08908).
T1 construct: expressed in transfected cells; host or cells: HEK293
T1 sequence (P08908 1-422): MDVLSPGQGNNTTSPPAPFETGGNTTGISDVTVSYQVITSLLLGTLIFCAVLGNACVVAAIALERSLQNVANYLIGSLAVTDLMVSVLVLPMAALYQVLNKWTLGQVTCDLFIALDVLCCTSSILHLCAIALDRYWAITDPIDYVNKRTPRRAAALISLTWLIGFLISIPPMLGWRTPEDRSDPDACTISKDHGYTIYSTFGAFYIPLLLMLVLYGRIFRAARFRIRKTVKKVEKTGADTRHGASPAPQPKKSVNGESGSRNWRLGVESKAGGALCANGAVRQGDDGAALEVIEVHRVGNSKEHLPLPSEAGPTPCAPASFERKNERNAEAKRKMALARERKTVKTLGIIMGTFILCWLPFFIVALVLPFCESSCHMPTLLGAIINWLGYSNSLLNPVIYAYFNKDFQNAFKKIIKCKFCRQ
Put plainly: 5-HT1A receptor binding assay (3H-8-OH-DPAT).

Series [5] in a line: Modified Vogel Conflict test. The class given is in vivo. The note with it: earlier in-house testing. An excerpt:
Earlier in-house functional testing of BMY 28674 utilized an in vivo test method based on modification of the Vogel Conflict test, a simple reliable conflict procedure for testing antianxiety agents (see: Vogel, et al., Psychopharmacologia, (Berl.) 21, pp. 1-7, 1971). […] No useful antianxiety activity has been ascribed to BMY 28674 previously.

The conditions of series [6]: cited from earlier work. The source holds these as a separate data set.

Entries after “also recorded” stand apart in the source; their conditions may differ. Read-outs that look alike come from different tables or passages of the source.

Take `Oc1cnc(N2CCNCC2)nc1` [5-hydroxy-1PP, reference compound]: the “abundance as metabolite in human urine” value in series [1] (in vivo) is “most”.
Turning to `O=C1CC2(CCCC2)CC(=O)N1CCCCN1CCN(c2ncccn2)CC1` [Buspirone, reference compound], in series [2], the “suppression of rat pup ultrasonic vocalization” value was “dose-dependent suppression”, the ED50 was 0.1 mg/kg and the “anxiolytic activity in rat pup isolation-induced ultrasonic vocalization model (in words)” value is given as “anxiolytic-like activity”. Also, the “inhibition of dorsal raphe neuronal firing” value with dorsal raphe neurons is on record as “potently inhibits”. The “locomotor activity (in words)” value in [3] (30 min prior to test) is “impaired”. This compound also came in with a concentration at 2 h in the series “clinical” (human, in vivo, po) below 1 ng/mL.
With `O=C1CC2(CCCC2)C(O)C(=O)N1CCCCN1CCN(c2ncccn2)CC1` (stereo not drawn) [BMY 28674, 6-hydroxy-8-[4-[4-(2-pyrimidinyl)-piperazinyl]-butyl]-8-azaspiro[4.5]-7,9-dione], in [2], the “suppression of rat pup ultrasonic vocalization” value is recorded as “dose-dependent suppression”, the ED50 is 0.13 mg/kg and the “anxiolytic activity in rat pup isolation-induced ultrasonic vocalization model (in words)” value is given as “anxiolytic-like activity”. In [2] (vs suppression of motor activity), the “doses for anxiolytic activity relative to those required to suppress motor activity” value is reported as “much lower doses”. Moreover, the “abundance as metabolite in human urine” value in [1] (after buspirone) is recorded as “second most abundant metabolite”. Besides, the “antianxiety activity in previous testing” value in series [4] was “no anxiolytic activity was detected; also recorded: No significant antianxiety activity”. In addition, the “locomotor activity (in words)” value in series [3] (30 min prior to test) was “significantly impaired”. Besides, the ED50 in [3] (Rattus norvegicus, 0.5 h, 30 min prior to test, doses refer to weight of the salt, read-out: ID50 dose estimated to reduce locomotor activity) was 0.41 mg/kg. Further, the “ratio of doses impairing locomotor activity to doses suppressing ultrasonic calls” value in [3] (locomotor vs ultrasonic calls, 30 min) is reported as “approximately 3 fold”. Moreover, the “affinity for human 5-HT1A receptor (in words)” value on human 5-HT1A receptor is on record as “binding affinity that approaches that of buspirone; also recorded: binding affinity closer to that of buspirone”. Moreover, the “antianxiety response in the Vogel test” value in series [5] is recorded as “did not elicit an antianxiety response”. In addition, the “blood concentration relative to 1-PP” value in the series “clinical” (after oral buspirone, BMY 28674 vs 1-PP) is on record as “several-fold greater; also recorded: several-fold higher”. Moreover, the “blood levels compared to buspirone (in words)” value in “clinical” (oral buspirone BID, 12-hour dosing period) is “much higher and are sustained compared to buspirone”.
As to `c1cnc(N2CCNCC2)nc1` [1-PP, 1-(2-pyrimidinyl)piperazine], the “anxiogenic properties in other behavioral testing paradigms” value in [6] (Cervo et al., 1988, Martin, 1991) was “displayed anxiogenic properties”. In [6] (U.S. Pat. No. 4,409,223), the “antianxiety activity in certain other preclinical tests” value is reported as “some antianxiety activity”. For the same compound, in the series with dorsal raphe neurons, the “inhibition of dorsal raphe neuronal firing” value is reported as “weak inhibition”. Also, the “affinity for human 5-HT1A receptor (in words)” value at human 5-HT1A receptor is listed as “does not demonstrate binding”.

Source of the values: patent publication US6150365A, “Anxiety method” (priority 2000, dated 2000).
